{
  "source": "the kinase profiling compilation of Christmann-Franck et al. (2016)",
  "experiment_in_all_cases": "radiometric filter-binding kinase assay",
  "key": {"SYK (human)": {"molecular_target": "SYK (human) (UniProt P43405)", "conditions": "compound 10.0 µM"}, "ROCK2 (rat)": {"tested_on": "ROCK2 (rat)", "conditions": "accession and sequence are those of the human protein"}, "DYRK3 (human)": {"molecular_target": "DYRK3 (human) (UniProt O43781)", "sequence (O43781 whole entry, looked up)": "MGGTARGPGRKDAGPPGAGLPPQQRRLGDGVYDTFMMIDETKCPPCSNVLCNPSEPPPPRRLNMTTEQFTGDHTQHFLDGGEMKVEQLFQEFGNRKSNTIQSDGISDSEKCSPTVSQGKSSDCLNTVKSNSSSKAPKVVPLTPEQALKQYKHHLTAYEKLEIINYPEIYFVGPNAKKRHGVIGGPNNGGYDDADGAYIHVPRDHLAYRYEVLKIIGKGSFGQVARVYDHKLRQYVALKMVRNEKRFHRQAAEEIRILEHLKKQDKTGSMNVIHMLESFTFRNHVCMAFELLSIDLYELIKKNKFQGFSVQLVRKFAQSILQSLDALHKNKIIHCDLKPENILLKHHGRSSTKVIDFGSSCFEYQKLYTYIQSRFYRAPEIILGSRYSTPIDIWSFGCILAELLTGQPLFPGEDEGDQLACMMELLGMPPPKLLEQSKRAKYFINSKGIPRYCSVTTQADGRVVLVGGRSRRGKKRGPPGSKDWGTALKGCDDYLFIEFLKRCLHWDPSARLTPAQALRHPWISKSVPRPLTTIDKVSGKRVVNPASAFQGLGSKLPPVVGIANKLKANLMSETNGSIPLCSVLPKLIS"}, "MARK1 (human)": {"molecular_target": "MARK1 (human) (UniProt Q9P0L2)"}, "TTK (human)": {"molecular_target": "TTK (human) (UniProt P33981)"}, "GSK3B (human)": {"molecular_target": "GSK3B (human) (UniProt P49841)"}, "MKNK1 (human)": {"molecular_target": "MKNK1 (human) (UniProt Q9BUB5)"}, "MAPK10 (human)": {"molecular_target": "MAPK10 (human) (UniProt P53779)", "conditions": "compound 1.0 µM"}, "EPHB1 (human)": {"molecular_target": "EPHB1 (human) (UniProt P54762)"}, "PIM3 (human)": {"molecular_target": "PIM3 (human) (UniProt Q86V86)"}, "LCK (mouse)": {"tested_on": "LCK (mouse)", "conditions": "accession and sequence are those of the human protein"}, "INSRR (human)": {"molecular_target": "INSRR (human) (UniProt P14616)", "conditions": "compound 1.0 µM"}, "[1]": {"tested_on": "AKT2 (human), P31751 [S474D]"}, "[2]": {"tested_on": "AKT1 (human), P31749 [S473D]", "conditions": "compound 10.0 µM"}, "[3]": {"tested_on": "RPS6KB1 (human), P23443 [T412E]", "sequence (P23443 whole entry T412E, looked up)": "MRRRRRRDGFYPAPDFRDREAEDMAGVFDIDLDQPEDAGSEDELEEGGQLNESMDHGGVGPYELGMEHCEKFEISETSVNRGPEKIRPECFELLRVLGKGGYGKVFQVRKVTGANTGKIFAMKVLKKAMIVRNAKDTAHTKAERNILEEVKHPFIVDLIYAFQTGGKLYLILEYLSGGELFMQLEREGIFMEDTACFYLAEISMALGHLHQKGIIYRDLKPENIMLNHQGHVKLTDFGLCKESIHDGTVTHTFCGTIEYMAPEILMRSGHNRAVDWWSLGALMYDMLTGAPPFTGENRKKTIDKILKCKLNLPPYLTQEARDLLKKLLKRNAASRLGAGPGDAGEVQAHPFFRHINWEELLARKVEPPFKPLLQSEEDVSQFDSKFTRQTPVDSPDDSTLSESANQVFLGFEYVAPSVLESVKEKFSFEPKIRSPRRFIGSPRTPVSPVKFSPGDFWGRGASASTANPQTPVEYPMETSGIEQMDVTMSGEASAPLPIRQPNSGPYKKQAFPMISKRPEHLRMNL"}, "SRPK1 (human)": {"molecular_target": "SRPK1 (human) (UniProt Q96SB4)", "sequence (Q96SB4 whole entry, looked up)": "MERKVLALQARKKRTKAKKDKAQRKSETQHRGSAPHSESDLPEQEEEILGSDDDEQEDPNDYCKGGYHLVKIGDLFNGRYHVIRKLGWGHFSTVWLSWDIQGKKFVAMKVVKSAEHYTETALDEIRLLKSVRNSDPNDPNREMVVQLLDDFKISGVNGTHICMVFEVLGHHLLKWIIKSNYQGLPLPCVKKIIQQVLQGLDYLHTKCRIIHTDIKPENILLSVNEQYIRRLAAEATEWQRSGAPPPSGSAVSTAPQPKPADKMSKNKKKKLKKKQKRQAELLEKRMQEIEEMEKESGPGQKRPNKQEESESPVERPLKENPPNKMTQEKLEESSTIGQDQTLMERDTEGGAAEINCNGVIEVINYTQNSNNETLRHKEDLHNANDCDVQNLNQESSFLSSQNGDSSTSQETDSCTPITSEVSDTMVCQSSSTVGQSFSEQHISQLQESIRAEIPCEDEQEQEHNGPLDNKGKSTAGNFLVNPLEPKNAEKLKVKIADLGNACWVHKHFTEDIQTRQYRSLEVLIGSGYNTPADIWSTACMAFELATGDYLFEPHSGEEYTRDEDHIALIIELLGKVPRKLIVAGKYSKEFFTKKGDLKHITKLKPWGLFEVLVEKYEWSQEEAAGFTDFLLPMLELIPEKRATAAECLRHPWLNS"}, "EPHA2 (human)": {"molecular_target": "EPHA2 (human) (UniProt P29317)"}, "MAP3K9 (human)": {"molecular_target": "MAP3K9 (human) (UniProt P80192)"}, "MARK2 (human)": {"molecular_target": "MARK2 (human) (UniProt Q7KZI7)", "sequence (Q7KZI7 whole entry, looked up)": "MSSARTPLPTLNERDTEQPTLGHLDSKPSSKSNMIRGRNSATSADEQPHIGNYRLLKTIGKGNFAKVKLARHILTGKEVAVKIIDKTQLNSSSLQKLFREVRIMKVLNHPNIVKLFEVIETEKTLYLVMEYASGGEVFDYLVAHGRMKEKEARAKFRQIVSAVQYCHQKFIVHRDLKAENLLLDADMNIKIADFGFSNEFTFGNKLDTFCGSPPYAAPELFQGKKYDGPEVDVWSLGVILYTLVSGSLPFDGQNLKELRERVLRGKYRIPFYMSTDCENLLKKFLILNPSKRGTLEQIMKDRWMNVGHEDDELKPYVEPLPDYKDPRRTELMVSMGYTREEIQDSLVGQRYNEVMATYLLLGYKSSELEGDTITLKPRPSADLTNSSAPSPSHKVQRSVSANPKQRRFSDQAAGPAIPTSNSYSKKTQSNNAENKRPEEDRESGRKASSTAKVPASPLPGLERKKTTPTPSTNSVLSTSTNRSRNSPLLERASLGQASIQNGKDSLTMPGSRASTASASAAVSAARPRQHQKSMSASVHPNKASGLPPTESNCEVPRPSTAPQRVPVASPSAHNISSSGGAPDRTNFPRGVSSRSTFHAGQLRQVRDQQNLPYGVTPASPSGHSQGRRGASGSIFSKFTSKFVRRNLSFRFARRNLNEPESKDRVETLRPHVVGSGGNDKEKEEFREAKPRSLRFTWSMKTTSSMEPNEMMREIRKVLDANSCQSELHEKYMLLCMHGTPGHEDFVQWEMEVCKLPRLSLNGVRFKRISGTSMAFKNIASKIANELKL"}, "IRAK4 (human)": {"molecular_target": "IRAK4 (human) (UniProt Q9NWZ3)", "sequence (Q9NWZ3 whole entry, looked up)": "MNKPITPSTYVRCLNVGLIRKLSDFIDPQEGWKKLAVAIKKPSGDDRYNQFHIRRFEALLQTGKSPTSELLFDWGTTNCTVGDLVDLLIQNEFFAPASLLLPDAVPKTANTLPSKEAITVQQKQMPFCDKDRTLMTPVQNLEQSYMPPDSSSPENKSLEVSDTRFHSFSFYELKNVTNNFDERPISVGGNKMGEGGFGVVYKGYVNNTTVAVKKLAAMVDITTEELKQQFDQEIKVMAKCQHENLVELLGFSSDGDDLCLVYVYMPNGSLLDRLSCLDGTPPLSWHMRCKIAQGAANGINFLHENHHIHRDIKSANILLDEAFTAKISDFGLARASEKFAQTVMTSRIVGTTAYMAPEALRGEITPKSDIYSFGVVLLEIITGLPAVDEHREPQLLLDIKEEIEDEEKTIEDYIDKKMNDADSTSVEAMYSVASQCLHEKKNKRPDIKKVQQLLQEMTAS"}, "TBK1 (human)": {"molecular_target": "TBK1 (human) (UniProt Q9UHD2)"}, "[4]": {"tested_on": "PAK2 (human), Q13177 [T402E]"}, "NEK2 (human)": {"molecular_target": "NEK2 (human) (UniProt P51955)"}, "PKN2 (human)": {"molecular_target": "PKN2 (human) (UniProt Q16513)", "sequence (Q16513 whole entry, looked up)": "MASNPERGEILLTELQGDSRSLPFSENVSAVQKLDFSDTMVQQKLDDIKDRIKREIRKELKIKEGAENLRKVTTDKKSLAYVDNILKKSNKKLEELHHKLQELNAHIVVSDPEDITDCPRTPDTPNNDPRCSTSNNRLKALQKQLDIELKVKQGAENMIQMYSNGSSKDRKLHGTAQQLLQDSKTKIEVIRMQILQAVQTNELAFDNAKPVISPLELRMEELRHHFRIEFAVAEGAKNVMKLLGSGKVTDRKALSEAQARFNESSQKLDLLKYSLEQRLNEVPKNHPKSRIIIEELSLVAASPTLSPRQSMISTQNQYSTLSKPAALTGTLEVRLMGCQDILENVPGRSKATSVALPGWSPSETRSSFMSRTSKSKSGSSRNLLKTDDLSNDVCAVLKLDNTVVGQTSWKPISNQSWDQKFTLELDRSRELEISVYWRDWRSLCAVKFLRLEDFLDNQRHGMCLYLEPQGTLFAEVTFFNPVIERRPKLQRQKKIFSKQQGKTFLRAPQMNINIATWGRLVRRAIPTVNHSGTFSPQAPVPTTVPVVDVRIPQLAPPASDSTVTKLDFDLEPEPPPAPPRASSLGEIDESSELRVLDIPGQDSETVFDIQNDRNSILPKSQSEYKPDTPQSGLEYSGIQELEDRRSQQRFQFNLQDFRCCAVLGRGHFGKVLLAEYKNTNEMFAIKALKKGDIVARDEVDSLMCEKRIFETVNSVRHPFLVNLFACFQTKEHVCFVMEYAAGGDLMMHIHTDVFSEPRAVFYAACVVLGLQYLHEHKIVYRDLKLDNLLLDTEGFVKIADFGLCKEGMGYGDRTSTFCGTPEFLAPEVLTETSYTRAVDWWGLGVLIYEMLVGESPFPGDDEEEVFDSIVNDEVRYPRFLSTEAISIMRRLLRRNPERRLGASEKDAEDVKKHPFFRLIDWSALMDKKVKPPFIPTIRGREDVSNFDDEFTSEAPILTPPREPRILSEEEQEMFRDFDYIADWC"}, "MAP2K1 (human)": {"molecular_target": "MAP2K1 (human) (UniProt Q02750)"}, "[5]": {"molecular_target": "STK11 CAB39 STRADA (human) (UniProt Q9Y376+Q7RTN6+Q15831)"}, "MAP2K6 (human)": {"molecular_target": "MAP2K6 (human) (UniProt P52564)"}, "PIM2 (human)": {"molecular_target": "PIM2 (human) (UniProt Q9P1W9)", "sequence (Q9P1W9 whole entry, looked up)": "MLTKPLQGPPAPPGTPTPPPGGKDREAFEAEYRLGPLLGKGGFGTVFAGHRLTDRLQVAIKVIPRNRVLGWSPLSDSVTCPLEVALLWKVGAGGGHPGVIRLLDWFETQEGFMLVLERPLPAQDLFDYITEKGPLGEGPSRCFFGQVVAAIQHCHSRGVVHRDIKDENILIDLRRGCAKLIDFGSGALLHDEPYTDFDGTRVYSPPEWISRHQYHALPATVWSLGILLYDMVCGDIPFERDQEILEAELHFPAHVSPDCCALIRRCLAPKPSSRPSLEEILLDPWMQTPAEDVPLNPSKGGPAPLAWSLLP"}, "CSNK2A1 (human)": {"molecular_target": "CSNK2A1 (human) (UniProt P68400)"}, "MAPK13 (human)": {"molecular_target": "MAPK13 (human) (UniProt O15264)"}, "MYLK (human)": {"molecular_target": "MYLK (human) (UniProt Q15746)", "conditions": "compound 10.0 µM"}, "PHKG1 (human)": {"molecular_target": "PHKG1 (human) (UniProt Q16816)", "sequence (Q16816 whole entry, looked up)": "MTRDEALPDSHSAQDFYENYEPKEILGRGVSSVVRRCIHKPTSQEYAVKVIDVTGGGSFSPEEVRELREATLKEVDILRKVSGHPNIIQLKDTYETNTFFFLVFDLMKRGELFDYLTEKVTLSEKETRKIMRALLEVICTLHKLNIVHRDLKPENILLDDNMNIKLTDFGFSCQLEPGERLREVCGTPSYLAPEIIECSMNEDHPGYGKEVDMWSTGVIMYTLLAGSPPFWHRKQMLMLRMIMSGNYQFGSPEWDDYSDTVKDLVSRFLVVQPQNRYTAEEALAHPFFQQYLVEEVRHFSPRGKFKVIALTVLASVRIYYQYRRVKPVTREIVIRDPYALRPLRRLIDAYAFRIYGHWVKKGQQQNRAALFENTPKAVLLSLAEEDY"}, "NEK6 (human)": {"molecular_target": "NEK6 (human) (UniProt Q9HC98)"}},
  "data": [
    {"smiles": "O=C(NOCC(O)CO)c1ccc(F)c(F)c1Nc1ccc(I)cc1Cl", "note": "(stereo unspecified)", "values": [
      {"measurement": "residual activity", "setting": "SYK (human)", "result": 77, "unit": "%"},
      {"measurement": "residual activity", "setting": "ROCK2 (rat); compound 1.0 µM", "result": 102, "unit": "%"},
      {"measurement": "residual activity", "setting": "ROCK2 (rat); compound 10.0 µM", "result": 103, "unit": "%"},
      {"measurement": "residual activity", "setting": "DYRK3 (human); compound 1.0 µM", "result": 107, "unit": "%"},
      {"measurement": "residual activity", "setting": "DYRK3 (human); compound 10.0 µM", "result": 83, "unit": "%"},
      {"measurement": "residual activity", "setting": "MARK1 (human); compound 1.0 µM", "result": 77, "unit": "%"},
      {"measurement": "residual activity", "setting": "MARK1 (human); compound 10.0 µM", "result": 71, "unit": "%"},
      {"measurement": "residual activity", "setting": "TTK (human); compound 1.0 µM", "result": 105, "unit": "%"},
      {"measurement": "residual activity", "setting": "TTK (human); compound 10.0 µM", "result": 98, "unit": "%"},
      {"measurement": "residual activity", "setting": "GSK3B (human); compound 1.0 µM", "result": 89, "unit": "%"},
      {"measurement": "residual activity", "setting": "GSK3B (human); compound 10.0 µM", "result": 89, "unit": "%"},
      {"measurement": "residual activity", "setting": "MKNK1 (human); compound 1.0 µM", "result": 106, "unit": "%"},
      {"measurement": "residual activity", "setting": "MKNK1 (human); compound 10.0 µM", "result": 95, "unit": "%"},
      {"measurement": "residual activity", "setting": "MAPK10 (human)", "result": 83, "unit": "%"},
      {"measurement": "residual activity", "setting": "EPHB1 (human); compound 1.0 µM", "result": 107, "unit": "%"},
      {"measurement": "residual activity", "setting": "EPHB1 (human); compound 10.0 µM", "result": 92, "unit": "%"},
      {"measurement": "residual activity", "setting": "PIM3 (human); compound 1.0 µM", "result": 94, "unit": "%"},
      {"measurement": "residual activity", "setting": "PIM3 (human); compound 10.0 µM", "result": 65, "unit": "%"},
      {"measurement": "residual activity", "setting": "LCK (mouse); compound 1.0 µM", "result": 93, "unit": "%"},
      {"measurement": "residual activity", "setting": "LCK (mouse); compound 10.0 µM", "result": 104, "unit": "%"},
      {"measurement": "residual activity", "setting": "INSRR (human)", "result": 84, "unit": "%"},
      {"measurement": "residual activity", "setting": "[1]; compound 1.0 µM", "result": 97, "unit": "%"},
      {"measurement": "residual activity", "setting": "[1]; compound 10.0 µM", "result": 90, "unit": "%"},
      {"measurement": "residual activity", "setting": "[2]", "result": 99, "unit": "%"},
      {"measurement": "residual activity", "setting": "[3]; compound 1.0 µM", "result": 94, "unit": "%"},
      {"measurement": "residual activity", "setting": "[3]; compound 10.0 µM", "result": 80, "unit": "%"},
      {"measurement": "residual activity", "setting": "SRPK1 (human); compound 1.0 µM", "result": 95, "unit": "%"},
      {"measurement": "residual activity", "setting": "SRPK1 (human); compound 10.0 µM", "result": 86, "unit": "%"},
      {"measurement": "residual activity", "setting": "EPHA2 (human); compound 1.0 µM", "result": 112, "unit": "%"},
      {"measurement": "residual activity", "setting": "EPHA2 (human); compound 10.0 µM", "result": 105, "unit": "%"},
      {"measurement": "residual activity", "setting": "MAP3K9 (human); compound 1.0 µM", "result": 84, "unit": "%"},
      {"measurement": "residual activity", "setting": "MAP3K9 (human); compound 10.0 µM", "result": 85, "unit": "%"},
      {"measurement": "residual activity", "setting": "MARK2 (human); compound 1.0 µM", "result": 101, "unit": "%"},
      {"measurement": "residual activity", "setting": "MARK2 (human); compound 10.0 µM", "result": 101, "unit": "%"},
      {"measurement": "residual activity", "setting": "IRAK4 (human); compound 1.0 µM", "result": 77, "unit": "%"},
      {"measurement": "residual activity", "setting": "IRAK4 (human); compound 10.0 µM", "result": 91, "unit": "%"},
      {"measurement": "residual activity", "setting": "TBK1 (human); compound 1.0 µM", "result": 111, "unit": "%"},
      {"measurement": "residual activity", "setting": "TBK1 (human); compound 10.0 µM", "result": 99, "unit": "%"},
      {"measurement": "residual activity", "setting": "[4]; compound 1.0 µM", "result": 95, "unit": "%"},
      {"measurement": "residual activity", "setting": "[4]; compound 10.0 µM", "result": 80, "unit": "%"},
      {"measurement": "residual activity", "setting": "NEK2 (human); compound 1.0 µM", "result": 98, "unit": "%"},
      {"measurement": "residual activity", "setting": "NEK2 (human); compound 10.0 µM", "result": 94, "unit": "%"},
      {"measurement": "residual activity", "setting": "PKN2 (human); compound 1.0 µM", "result": 70, "unit": "%"},
      {"measurement": "residual activity", "setting": "PKN2 (human); compound 10.0 µM", "result": 79, "unit": "%"},
      {"measurement": "residual activity", "setting": "MAP2K1 (human); compound 1.0 µM", "result": 36, "unit": "%"},
      {"measurement": "residual activity", "setting": "MAP2K1 (human); compound 10.0 µM", "result": 3, "unit": "%"},
      {"measurement": "residual activity", "setting": "[5]; compound 1.0 µM", "result": 80, "unit": "%"},
      {"measurement": "residual activity", "setting": "[5]; compound 10.0 µM", "result": 77, "unit": "%"},
      {"measurement": "residual activity", "setting": "MAP2K6 (human); compound 1.0 µM", "result": 90, "unit": "%"},
      {"measurement": "residual activity", "setting": "MAP2K6 (human); compound 10.0 µM", "result": 67, "unit": "%"},
      {"measurement": "residual activity", "setting": "PIM2 (human); compound 1.0 µM", "result": 91, "unit": "%"},
      {"measurement": "residual activity", "setting": "PIM2 (human); compound 10.0 µM", "result": 93, "unit": "%"},
      {"measurement": "residual activity", "setting": "CSNK2A1 (human); compound 1.0 µM", "result": 111, "unit": "%"},
      {"measurement": "residual activity", "setting": "CSNK2A1 (human); compound 10.0 µM", "result": 98, "unit": "%"},
      {"measurement": "residual activity", "setting": "MAPK13 (human); compound 1.0 µM", "result": 84, "unit": "%"},
      {"measurement": "residual activity", "setting": "MAPK13 (human); compound 10.0 µM", "result": 97, "unit": "%"},
      {"measurement": "residual activity", "setting": "MYLK (human)", "result": 86, "unit": "%"},
      {"measurement": "residual activity", "setting": "PHKG1 (human); compound 1.0 µM", "result": 94, "unit": "%"},
      {"measurement": "residual activity", "setting": "PHKG1 (human); compound 10.0 µM", "result": 90, "unit": "%"},
      {"measurement": "residual activity", "setting": "NEK6 (human); compound 1.0 µM", "result": 101, "unit": "%"},
      {"measurement": "residual activity", "setting": "NEK6 (human); compound 10.0 µM", "result": 103, "unit": "%"}
    ]}
  ]
}
